Assays:
[1] = target: T1, Alpha-2B adrenergic receptor (Homo sapiens, UniProt P18089)
T1 sequence (P18089 whole entry): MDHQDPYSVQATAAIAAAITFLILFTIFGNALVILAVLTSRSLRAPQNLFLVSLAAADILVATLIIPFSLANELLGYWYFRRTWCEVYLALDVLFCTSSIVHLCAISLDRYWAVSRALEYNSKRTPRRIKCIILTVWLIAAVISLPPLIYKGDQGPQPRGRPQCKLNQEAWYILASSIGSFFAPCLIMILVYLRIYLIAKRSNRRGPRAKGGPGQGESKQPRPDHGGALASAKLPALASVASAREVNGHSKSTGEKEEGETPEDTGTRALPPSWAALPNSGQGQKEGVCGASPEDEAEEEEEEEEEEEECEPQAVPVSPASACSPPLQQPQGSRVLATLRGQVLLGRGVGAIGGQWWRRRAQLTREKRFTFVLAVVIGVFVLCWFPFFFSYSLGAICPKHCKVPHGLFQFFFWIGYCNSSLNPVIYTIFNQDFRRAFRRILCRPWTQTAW

[2] = target: Beta-2 adrenergic receptor (Homo sapiens, UniProt P07550)
[3] = target: T2, B2 bradykinin receptor (Homo sapiens, UniProt P30411)
T2 sequence (P30411 whole entry): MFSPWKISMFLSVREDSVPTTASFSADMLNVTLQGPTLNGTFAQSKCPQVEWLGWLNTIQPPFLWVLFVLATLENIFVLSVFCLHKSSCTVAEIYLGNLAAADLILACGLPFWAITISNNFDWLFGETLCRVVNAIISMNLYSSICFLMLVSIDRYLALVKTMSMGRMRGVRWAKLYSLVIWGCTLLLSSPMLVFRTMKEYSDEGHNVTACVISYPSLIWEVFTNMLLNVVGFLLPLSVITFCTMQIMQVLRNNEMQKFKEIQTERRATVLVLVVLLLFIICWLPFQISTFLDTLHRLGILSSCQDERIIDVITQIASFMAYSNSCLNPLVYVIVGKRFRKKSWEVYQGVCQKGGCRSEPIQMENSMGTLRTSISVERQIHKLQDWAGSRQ

[4] = target: Kappa-type opioid receptor (Homo sapiens, UniProt P41145)
[5] = target: Histamine H3 receptor (Homo sapiens, UniProt Q9Y5N1)
[6] = target: Cannabinoid receptor 1 (Homo sapiens, UniProt P21554); assay type: functional, cell-based
[7] = target: T3, Alpha-1A adrenergic receptor (Homo sapiens, UniProt P35348)
T3 sequence (P35348 whole entry): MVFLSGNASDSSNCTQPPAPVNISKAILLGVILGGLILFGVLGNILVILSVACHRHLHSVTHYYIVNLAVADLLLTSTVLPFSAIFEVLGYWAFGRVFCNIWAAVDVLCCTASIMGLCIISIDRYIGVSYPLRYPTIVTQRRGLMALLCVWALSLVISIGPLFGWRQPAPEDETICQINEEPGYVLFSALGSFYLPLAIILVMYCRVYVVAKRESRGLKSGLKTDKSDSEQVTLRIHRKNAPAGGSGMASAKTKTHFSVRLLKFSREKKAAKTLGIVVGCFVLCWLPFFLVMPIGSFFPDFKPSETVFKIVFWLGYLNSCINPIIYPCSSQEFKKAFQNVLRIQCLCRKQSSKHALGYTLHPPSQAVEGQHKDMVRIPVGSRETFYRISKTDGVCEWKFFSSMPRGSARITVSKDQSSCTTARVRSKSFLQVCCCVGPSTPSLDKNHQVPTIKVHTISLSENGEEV

[8] = target: Melanocortin receptor 4 (Homo sapiens, UniProt P32245)
[9] = target: Acetylcholinesterase (Homo sapiens, UniProt P22303); assay type: functional
[10] = target: T4, Adenosine receptor A3 (Homo sapiens, UniProt P0DMS8)
T4 sequence (P0DMS8 whole entry): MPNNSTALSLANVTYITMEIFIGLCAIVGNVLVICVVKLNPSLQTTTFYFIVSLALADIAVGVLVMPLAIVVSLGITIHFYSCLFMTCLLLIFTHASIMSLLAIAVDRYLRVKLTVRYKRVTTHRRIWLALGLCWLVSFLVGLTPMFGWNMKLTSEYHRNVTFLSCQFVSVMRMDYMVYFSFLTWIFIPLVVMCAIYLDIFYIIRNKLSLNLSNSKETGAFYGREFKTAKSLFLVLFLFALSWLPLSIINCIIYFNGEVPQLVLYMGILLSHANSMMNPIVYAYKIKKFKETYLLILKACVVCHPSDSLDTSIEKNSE

[11] = target: D(3) dopamine receptor (Homo sapiens, UniProt P35462)
[12] = target: Prothrombin (Homo sapiens, UniProt P00734); assay type: functional
[13] = target: T5, Prostaglandin G/H synthase 1 (Homo sapiens, UniProt P23219); assay type: functional
[14] = target: D(1A) dopamine receptor (Homo sapiens, UniProt P21728)
[15] = target: T5, Prostaglandin G/H synthase 1; assay type: functional; remark: listed apart in the source
[16] = target: Sodium-dependent serotonin transporter (Homo sapiens, UniProt P31645)
Further: assay procedure not described here.

Sequence of Cannabinoid receptor 1 (P21554 whole entry): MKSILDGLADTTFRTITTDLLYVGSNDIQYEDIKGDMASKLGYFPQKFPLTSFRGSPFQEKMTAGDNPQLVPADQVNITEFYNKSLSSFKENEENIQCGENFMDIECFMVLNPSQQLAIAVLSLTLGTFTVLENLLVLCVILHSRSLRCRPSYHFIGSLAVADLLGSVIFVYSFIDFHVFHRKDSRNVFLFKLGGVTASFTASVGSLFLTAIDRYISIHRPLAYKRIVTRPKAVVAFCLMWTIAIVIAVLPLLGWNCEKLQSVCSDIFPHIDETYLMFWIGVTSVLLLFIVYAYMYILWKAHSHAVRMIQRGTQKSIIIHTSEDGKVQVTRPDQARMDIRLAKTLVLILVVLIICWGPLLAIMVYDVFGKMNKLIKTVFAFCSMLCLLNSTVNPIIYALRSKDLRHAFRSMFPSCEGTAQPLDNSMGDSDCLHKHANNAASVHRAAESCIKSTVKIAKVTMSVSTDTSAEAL
Sequence of Melanocortin receptor 4 (P32245 whole entry): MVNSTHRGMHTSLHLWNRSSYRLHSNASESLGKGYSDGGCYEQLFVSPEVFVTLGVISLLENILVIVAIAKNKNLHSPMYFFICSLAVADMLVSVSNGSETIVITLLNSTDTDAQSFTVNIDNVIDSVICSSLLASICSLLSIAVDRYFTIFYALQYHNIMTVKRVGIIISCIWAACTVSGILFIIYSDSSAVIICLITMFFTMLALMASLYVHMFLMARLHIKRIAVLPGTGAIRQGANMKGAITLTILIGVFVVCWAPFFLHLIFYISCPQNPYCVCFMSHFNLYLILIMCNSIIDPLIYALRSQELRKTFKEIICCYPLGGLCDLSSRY
Sequence of Kappa-type opioid receptor (P41145 whole entry): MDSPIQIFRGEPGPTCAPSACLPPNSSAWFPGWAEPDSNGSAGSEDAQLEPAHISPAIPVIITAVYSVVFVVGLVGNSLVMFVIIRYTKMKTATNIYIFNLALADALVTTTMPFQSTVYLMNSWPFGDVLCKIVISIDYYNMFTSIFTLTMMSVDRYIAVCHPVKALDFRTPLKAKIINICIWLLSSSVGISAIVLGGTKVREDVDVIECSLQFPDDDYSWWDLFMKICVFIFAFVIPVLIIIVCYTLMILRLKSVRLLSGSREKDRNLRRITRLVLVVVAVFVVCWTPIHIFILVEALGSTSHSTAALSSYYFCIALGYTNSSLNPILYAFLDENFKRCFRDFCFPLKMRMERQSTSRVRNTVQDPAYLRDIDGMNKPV
Sequence of Histamine H3 receptor (Q9Y5N1 whole entry): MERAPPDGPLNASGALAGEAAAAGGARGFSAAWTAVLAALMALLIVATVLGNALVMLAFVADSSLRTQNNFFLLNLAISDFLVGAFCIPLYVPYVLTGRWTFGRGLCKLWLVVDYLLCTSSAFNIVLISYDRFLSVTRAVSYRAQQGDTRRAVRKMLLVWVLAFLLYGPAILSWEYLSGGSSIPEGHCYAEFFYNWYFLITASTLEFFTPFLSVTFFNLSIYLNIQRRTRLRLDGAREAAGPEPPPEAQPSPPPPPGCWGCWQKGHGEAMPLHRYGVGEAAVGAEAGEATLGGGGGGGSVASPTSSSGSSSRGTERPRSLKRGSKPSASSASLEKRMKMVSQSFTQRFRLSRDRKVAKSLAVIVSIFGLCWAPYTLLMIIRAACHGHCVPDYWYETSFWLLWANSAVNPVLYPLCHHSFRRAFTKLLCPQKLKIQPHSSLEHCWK
Sequence of Beta-2 adrenergic receptor (P07550 whole entry): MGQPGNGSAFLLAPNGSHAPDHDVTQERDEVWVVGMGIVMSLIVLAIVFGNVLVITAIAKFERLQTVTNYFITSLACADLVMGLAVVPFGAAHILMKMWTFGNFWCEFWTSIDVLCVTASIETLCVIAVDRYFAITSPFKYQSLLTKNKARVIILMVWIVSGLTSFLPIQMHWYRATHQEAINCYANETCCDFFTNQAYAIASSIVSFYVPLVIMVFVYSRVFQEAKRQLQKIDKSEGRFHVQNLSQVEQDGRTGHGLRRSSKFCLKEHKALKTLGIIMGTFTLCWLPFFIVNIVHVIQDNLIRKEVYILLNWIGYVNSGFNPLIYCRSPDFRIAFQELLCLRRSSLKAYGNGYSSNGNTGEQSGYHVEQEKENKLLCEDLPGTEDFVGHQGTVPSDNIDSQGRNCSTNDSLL
Sequence of D(3) dopamine receptor (P35462 whole entry): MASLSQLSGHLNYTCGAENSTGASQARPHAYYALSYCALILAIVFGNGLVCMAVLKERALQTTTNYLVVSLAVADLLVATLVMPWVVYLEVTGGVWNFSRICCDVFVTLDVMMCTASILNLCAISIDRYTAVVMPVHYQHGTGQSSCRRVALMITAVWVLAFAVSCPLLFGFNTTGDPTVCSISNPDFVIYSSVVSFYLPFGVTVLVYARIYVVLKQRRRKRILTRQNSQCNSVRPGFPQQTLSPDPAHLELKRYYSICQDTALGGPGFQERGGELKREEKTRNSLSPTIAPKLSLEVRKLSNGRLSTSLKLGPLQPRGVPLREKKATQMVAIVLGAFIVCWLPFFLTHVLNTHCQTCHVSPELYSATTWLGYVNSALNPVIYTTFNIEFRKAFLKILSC
T5 sequence (P23219 whole entry): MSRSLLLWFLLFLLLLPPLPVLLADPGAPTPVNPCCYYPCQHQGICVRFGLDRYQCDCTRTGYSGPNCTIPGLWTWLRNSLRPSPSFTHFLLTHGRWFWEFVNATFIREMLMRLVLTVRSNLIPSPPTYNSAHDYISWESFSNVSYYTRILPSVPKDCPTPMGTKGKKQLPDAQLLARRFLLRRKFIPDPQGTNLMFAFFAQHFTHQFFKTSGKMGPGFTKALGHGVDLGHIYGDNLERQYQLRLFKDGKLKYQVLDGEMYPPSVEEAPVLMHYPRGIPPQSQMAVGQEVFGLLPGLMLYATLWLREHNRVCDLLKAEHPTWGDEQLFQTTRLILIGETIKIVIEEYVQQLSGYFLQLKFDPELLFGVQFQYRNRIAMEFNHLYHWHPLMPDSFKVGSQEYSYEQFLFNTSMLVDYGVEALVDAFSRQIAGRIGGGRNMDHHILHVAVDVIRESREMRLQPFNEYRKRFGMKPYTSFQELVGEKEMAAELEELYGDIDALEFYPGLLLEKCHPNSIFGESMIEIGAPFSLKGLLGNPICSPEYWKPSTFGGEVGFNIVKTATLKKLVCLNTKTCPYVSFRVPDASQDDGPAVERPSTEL
Sequence of Acetylcholinesterase (P22303 whole entry): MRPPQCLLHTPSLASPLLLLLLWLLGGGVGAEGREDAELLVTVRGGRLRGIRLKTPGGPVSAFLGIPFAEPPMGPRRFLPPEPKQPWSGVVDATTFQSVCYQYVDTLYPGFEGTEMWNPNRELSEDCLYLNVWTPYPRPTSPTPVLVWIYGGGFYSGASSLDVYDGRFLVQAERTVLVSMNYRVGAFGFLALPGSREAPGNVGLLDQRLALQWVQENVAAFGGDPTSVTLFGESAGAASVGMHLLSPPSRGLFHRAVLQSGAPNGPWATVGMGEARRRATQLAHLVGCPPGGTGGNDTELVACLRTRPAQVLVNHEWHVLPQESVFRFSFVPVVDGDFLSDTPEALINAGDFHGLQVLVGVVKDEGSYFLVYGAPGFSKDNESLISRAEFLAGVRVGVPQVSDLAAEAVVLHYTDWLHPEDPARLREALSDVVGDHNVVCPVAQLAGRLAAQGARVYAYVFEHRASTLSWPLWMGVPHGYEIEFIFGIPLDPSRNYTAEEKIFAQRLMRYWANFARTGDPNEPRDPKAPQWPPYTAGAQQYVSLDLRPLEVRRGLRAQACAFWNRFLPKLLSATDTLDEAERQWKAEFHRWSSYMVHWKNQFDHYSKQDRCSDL
Sequence of D(1A) dopamine receptor (P21728 whole entry): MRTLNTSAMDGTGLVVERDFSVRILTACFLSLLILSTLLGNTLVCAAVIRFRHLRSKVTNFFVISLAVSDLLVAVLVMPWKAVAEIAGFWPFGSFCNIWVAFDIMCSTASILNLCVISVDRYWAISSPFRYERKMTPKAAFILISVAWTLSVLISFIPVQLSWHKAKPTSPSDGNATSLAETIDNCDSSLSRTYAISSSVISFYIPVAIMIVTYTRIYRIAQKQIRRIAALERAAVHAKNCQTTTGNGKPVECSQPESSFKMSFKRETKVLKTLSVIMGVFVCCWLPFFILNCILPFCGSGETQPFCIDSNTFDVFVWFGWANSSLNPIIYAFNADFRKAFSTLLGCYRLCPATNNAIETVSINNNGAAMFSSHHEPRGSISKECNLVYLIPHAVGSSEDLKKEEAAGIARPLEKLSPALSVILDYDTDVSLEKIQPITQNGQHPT
Sequence of Sodium-dependent serotonin transporter (P31645 whole entry): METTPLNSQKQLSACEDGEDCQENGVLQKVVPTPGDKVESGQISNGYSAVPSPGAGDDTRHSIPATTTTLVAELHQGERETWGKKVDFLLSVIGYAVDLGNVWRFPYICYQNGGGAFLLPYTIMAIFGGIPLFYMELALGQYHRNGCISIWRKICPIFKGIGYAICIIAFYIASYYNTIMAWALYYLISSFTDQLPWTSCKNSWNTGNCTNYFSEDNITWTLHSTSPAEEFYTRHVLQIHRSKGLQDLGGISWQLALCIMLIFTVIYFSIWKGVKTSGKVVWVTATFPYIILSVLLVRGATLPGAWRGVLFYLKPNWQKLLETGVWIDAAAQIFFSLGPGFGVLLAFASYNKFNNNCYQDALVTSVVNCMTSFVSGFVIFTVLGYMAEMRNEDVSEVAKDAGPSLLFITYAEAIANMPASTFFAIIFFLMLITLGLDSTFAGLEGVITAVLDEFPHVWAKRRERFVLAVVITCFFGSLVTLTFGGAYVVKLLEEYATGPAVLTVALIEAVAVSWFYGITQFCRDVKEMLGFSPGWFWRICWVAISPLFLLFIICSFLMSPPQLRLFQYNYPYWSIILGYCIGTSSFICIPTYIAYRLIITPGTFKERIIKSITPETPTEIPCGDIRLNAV

SMILES | AC50 [1] [µM] | AC50 [2] [µM] | AC50 [3] [µM] | AC50 [4] [µM] | AC50 [5] [µM] | AC50 [6] [µM] | AC50 [12] [µM] | other results
CCCCN1C[C@H](O)[C@@H](O)[C@H](O)[C@H]1CO | > 30 | > 30 | > 30 | > 30 | > 30 | – | – | –
CN(C)CCC=C1c2ccccc2C(C)(C)c2ccccc21 | 11 | – | – | – | 25 | > 30 | – | –
CCOC(=O)[C@H](CCc1ccccc1)N[C@@H](C)C(=O)N1[C@H](C(=O)O)C[C@@H]2CCC[C@@H]21 | – | > 10 | > 30 | > 10 | > 10 | > 30 | – | AC50 [7]: > 10 µM; AC50 [8]: > 30 µM
Nc1nc(NC2CC2)c2ncn([C@H]3C=C[C@@H](CO)C3)c2n1 [ABACAVIR] | > 30 | – | > 30 | > 30 | > 30 | > 30 | – | –
CC(=O)NCCCS(=O)(=O)O [ACAMPROSATE] | > 30 | – | > 30 | > 30 | > 30 | > 30 | – | –
CC(=O)Nc1ccc(O)cc1 [ACETAMINOPHEN] | – | – | – | – | > 30 | > 30 | > 30 | AC50 [9]: > 30 µM; AC50 [10]: > 30 µM; AC50 [11]: > 30 µM; AC50 [13]: > 30 µM
CCCSc1ccc2nc(NC(=O)OC)[nH]c2c1 [ALBENDAZOLE] | – | > 30 | > 10 | > 10 | – | – | – | AC50 [7]: > 10 µM; AC50 [8]: > 10 µM
COc1cc2nc(N(C)CCCNC(=O)C3CCCO3)nc(N)c2cc1OC (configuration not stated) [ALFUZOSIN] | 8.9 | > 30 | > 30 | > 30 | > 30 | > 30 | – | –
CNC(=O)c1ccccc1Sc1ccc2c(/C=C/c3ccccn3)n[nH]c2c1 [AXITINIB] | > 30 | > 10 | – | – | > 30 | > 30 | – | AC50 [7]: > 10 µM
CCc1oc2ccccc2c1C(=O)c1cc(I)c(O)c(I)c1 [BENZIODARONE] | – | – | – | – | – | – | > 30 | AC50 [9]: > 30 µM; AC50 [14]: 10 µM; AC50 [11]: 8.59 µM; AC50 [13]: 8.33 µM; AC50 [15]: 29.8 µM; AC50 [16]: > 30 µM
Cc1ccc(-c2cc(C(F)(F)F)nn2-c2ccc(S(N)(=O)=O)cc2)cc1 [CELECOXIB] | – | > 10 | > 30 | > 10 | > 10 | > 30 | – | AC50 [7]: > 10 µM; AC50 [8]: > 10 µM
COCc1c(C(C)C)nc(C(C)C)c(/C=C/[C@@H](O)C[C@@H](O)CC(=O)O)c1-c1ccc(F)cc1 [CERIVASTATIN] | – | – | – | – | – | – | > 30 | AC50 [9]: > 30 µM; AC50 [10]: > 30 µM; AC50 [14]: > 30 µM; AC50 [11]: > 30 µM; AC50 [13]: > 30 µM; AC50 [15]: > 30 µM
C[N+](C)(C)CCO [CHOLINE] | – | – | – | – | – | – | > 30 | AC50 [9]: > 30 µM; AC50 [10]: > 30 µM; AC50 [14]: > 30 µM; AC50 [11]: > 30 µM; AC50 [13]: > 30 µM; AC50 [15]: > 30 µM
CN(C)/N=N/c1[nH]cnc1C(N)=O [DACARBAZINE] | – | > 10 | > 10 | > 10 | – | – | – | AC50 [7]: > 10 µM; AC50 [8]: > 10 µM
C[C@]12CC[C@@H]3c4ccc(O)cc4CC[C@H]3[C@@H]1C[C@@H](O)[C@@H]2O [ESTRIOL] | – | – | – | – | – | – | > 30 | AC50 [9]: > 30 µM; AC50 [10]: > 30 µM; AC50 [14]: > 30 µM; AC50 [11]: > 30 µM; AC50 [13]: 12 µM; AC50 [15]: > 30 µM
CCC1=C(C)CN(C(=O)NCCc2ccc(S(=O)(=O)NC(=O)N[C@H]3CC[C@H](C)CC3)cc2)C1=O [GLIMEPIRIDE] | – | – | – | – | – | – | > 30 | AC50 [9]: > 30 µM; AC50 [10]: > 30 µM; AC50 [14]: > 30 µM; AC50 [11]: > 30 µM; AC50 [13]: > 30 µM; AC50 [15]: > 30 µM

SMILES | AC50 [1] [µM] | AC50 [2] [µM] | AC50 [3] [µM] | AC50 [4] [µM] | AC50 [5] [µM] | AC50 [6] [µM] | AC50 [12] [µM] | other results
C[N+]1(C)CCC(OC(=O)C(O)(c2ccccc2)C2CCCC2)C1 (configuration not stated) [GLYCOPYRRONIUM BROMIDE] | – | – | > 30 | – | – | – | > 30 | AC50 [8]: > 30 µM
O=P1(NCCCl)OCCCN1CCCl (configuration not stated) [IFOSFAMIDE] | – | > 30 | > 30 | > 30 | > 30 | – | – | AC50 [7]: > 30 µM; AC50 [8]: > 30 µM
c1ccc([C@H]2CN3CCSC3=N2)cc1 [LEVAMISOLE] | – | > 30 | – | > 30 | > 30 | > 30 | – | AC50 [7]: > 10 µM
C[C@H]1CNCCc2ccc(Cl)cc21 [LORCASERIN] | 5.7 | – | – | – | > 30 | > 30 | – | –
CNC1Cc2ccccc2N(C)c2ccccc21 (configuration not stated) [METAPRAMINE] | 29 | – | – | – | > 30 | > 30 | – | –
Clc1ccc(C(c2ccccc2Cl)C(Cl)Cl)cc1 (configuration not stated) [MITOTANE] | – | > 10 | > 10 | > 10 | – | – | – | AC50 [7]: > 10 µM; AC50 [8]: > 10 µM
Cc1nc([N+](=O)[O-])cn1-c1ccc([N+](=O)[O-])cc1 [NITREFAZOLE] | – | – | > 30 | > 30 | > 30 | > 30 | – | –
COc1ccc(CC(C)(C)NC[C@H](O)c2cc(O)cc3c2OCC(=O)N3)cc1 [OLODATEROL] | > 30 | – | – | – | > 30 | > 30 | – | –
CC(C)(S)[C@@H](N)C(=O)O [PENICILLAMINE] | – | – | – | – | – | – | > 30 | AC50 [9]: > 30 µM; AC50 [10]: > 30 µM; AC50 [14]: > 30 µM; AC50 [11]: > 30 µM
C1CCC(C(CC2CCCCN2)C2CCCCC2)CC1 (configuration not stated) [PERHEXILINE] | – | – | – | – | > 30 | > 30 | – | –
c1cnc(N2CCN(Cc3ccc4c(c3)OCO4)CC2)nc1 [PIRIBEDIL] | – | – | – | – | > 30 | > 30 | – | –
COc1cc(NC(C)CCCN)c2ncccc2c1 (configuration not stated) [PRIMAQUINE] | – | – | > 30 | – | – | – | > 30 | AC50 [10]: 14.7 µM; AC50 [13]: 3.95 µM
COc1ccccc1OCC(O)CN1CCN(CC(=O)Nc2c(C)cccc2C)CC1 (configuration not stated) [RANOLAZINE] | 17 | 5.7 | > 30 | > 30 | > 30 | – | – | AC50 [7]: 13 µM
O=C(O[C@H]1C[C@H]2CC[C@@H](C1)[N+]21CCCC1)C(O)(c1ccccc1)c1ccccc1 [TROSPIUM] | > 30 | > 30 | > 30 | > 30 | > 30 | – | – | AC50 [8]: > 30 µM
N[C@@H]1[C@H]2CN(c3nc4c(cc3F)c(=O)c(C(=O)O)cn4-c3ccc(F)cc3F)C[C@@H]12 [TROVAFLOXACIN] | – | – | – | – | > 30 | > 30 | – | –
CCCCCCOc1nsnc1C1=CCCN(C)C1 [XANOMELINE] | – | – | – | – | – | – | > 30 | AC50 [9]: 17.2 µM; AC50 [10]: > 30 µM; AC50 [14]: 1.22 µM; AC50 [11]: 0.273 µM; AC50 [13]: > 30 µM; AC50 [15]: > 30 µM; AC50 [16]: 18.5 µM
